In patent US20030166932A1 (priority 2002, published 2003):

What was measured:
RARβ = molecular target: T1, RARβ (Homo sapiens, UniProt P10826); assay: ligand binding assay; settings: read-out: RAR Bind. Ki (nM) β
T1 sequence (P10826 1-455): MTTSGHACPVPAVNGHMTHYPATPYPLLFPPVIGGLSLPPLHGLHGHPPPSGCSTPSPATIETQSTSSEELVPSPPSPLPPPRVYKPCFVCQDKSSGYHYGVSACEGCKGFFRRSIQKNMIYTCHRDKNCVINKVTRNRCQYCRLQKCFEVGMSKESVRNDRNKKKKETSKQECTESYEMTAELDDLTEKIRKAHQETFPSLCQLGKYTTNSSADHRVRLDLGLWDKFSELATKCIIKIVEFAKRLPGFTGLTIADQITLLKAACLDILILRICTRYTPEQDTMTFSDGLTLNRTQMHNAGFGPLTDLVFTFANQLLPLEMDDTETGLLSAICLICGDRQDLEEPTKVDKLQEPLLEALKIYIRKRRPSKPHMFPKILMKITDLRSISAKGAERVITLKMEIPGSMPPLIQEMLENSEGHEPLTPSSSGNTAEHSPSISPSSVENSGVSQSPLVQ
Text: (§1) The results obtained in this assay are expressed in EC50 numbers, as they are also in the chimeric receptor transactivation assay. The results of ligand binding assay are expressed in Kd numbers.
(§2) Particularly, the transactivation data pertaining to RAR receptors were obtained in the chimeric assay, and the data pertaining to transactivation of RXR receptors were obtained in the holoreceptor transactivation assay.

RXRα [1] = molecular target: T2, RXRα (Homo sapiens, UniProt P19793); assay: ligand binding assay
T2 sequence (P19793 1-462): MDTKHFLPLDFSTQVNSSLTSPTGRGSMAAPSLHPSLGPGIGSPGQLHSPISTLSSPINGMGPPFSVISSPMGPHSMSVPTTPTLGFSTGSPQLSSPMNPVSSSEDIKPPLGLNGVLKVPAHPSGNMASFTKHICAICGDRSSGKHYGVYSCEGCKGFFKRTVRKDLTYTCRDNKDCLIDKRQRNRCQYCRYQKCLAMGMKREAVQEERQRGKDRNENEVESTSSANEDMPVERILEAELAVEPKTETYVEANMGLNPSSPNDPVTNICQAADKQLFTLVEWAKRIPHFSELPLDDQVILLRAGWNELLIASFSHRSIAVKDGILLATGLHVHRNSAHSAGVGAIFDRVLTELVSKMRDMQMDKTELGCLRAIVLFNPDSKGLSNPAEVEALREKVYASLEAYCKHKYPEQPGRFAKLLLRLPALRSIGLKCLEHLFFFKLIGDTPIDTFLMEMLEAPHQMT
Text: as §1, §2

RARγ = molecular target: T3, RARγ (Homo sapiens, UniProt P13631); assay: ligand binding assay; settings: read-out: RAR Bind. Ki (nM) Y
T3 sequence (P13631 1-454): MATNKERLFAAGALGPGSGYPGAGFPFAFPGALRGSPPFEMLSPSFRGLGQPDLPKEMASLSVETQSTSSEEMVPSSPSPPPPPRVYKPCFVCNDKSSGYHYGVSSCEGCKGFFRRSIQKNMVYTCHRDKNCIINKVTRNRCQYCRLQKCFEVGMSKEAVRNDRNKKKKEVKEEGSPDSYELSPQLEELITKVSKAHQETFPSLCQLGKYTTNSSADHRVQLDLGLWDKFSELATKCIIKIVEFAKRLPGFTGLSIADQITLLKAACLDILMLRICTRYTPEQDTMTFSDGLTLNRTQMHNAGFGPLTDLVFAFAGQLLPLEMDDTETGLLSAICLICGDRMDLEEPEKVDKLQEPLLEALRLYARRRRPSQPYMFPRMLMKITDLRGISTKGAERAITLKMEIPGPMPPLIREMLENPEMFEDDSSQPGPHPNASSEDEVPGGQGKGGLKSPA
Text: as §1, §2

RXRβ [2] = molecular target: T4, RXRβ (UniProt P28704); assay: ligand binding assay; settings: read-out: RXR Bind Ki (nM) β
T4 sequence (P28704 1-520): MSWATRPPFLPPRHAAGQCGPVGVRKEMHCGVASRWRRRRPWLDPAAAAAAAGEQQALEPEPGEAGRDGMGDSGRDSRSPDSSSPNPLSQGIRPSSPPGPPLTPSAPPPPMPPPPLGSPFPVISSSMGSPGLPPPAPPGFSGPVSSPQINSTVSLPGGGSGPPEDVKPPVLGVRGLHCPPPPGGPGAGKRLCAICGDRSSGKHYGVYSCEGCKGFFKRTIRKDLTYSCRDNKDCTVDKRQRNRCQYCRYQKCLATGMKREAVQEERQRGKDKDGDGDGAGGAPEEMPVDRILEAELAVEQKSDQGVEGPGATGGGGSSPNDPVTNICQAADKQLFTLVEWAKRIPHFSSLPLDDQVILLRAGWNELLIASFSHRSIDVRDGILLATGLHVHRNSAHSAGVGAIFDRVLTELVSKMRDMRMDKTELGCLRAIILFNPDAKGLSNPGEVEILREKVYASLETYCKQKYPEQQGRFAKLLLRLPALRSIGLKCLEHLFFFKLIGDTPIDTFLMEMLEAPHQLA
Text: as §1, §2

RXRγ = molecular target: T5, RXRγ (UniProt P28705); assay: holoreceptor transactivation assay; format: cell-based; settings: for EC50: NA = Not Active, read-out: RXR Trans. EC50 (nM) Y; for % efficacy, RXR Trans. Y: relative to 10^−6 M AGN 194204
T5 sequence (P28705 1-463): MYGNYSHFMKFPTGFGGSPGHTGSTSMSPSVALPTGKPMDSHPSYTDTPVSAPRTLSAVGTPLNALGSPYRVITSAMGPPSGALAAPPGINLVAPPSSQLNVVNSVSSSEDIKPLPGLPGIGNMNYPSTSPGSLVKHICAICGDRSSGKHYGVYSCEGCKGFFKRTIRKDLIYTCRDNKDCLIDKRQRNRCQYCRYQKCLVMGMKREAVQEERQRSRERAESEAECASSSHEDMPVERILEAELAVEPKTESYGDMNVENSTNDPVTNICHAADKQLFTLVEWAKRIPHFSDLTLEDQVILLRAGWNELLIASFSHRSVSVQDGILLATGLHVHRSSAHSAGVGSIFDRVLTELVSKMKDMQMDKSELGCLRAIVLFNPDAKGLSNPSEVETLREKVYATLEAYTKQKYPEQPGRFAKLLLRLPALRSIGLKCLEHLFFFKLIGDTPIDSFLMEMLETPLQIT
Text: as §1, §2

RXRα [3] = molecular target: T2, RXRα; assay: holoreceptor transactivation assay; settings: for Emax: read-out: % efficacy, RXR Trans. α
Text: as §1, §2

RXRβ [4] = molecular target: T4, RXRβ; assay: holoreceptor transactivation assay; format: cell-based; settings: for EC50: NA = Not Active, read-out: RXR Trans. EC50 (nM) β; for % efficacy, RXR Trans. β: relative to 10^−6 M AGN 194204
Text: as §1, §2

CCCCCCOc1cc2c(cc1N(CC)c1ccc(C(=O)O)cc1)C(C(C)C)=CCC2(C)C [Compound 153, 4-[Ethyl-(3-n-hexyloxy-8-isopropyl-5,5-dimethyl-5,6-dihydronaphthalen-2-yl)amino]benzoic acid]
Ki (RARβ): 4800 nM | Ki (RXRα [1]): 0.022 µM | Ki (RARγ): 8900 nM | Ki (RXRβ [2]): 106 nM

CCCN(c1ccc(C(=O)O)cc1)c1cc2c(cc1OCc1ccccc1)C(C)(C)CC=C2C [Compound 147, 4-[(3-Benzyloxy-5 5,8-trimethyl-5,6-dihydronaphthalen-2-yl)-n-propylamino]benzoic acid]
Ki (RARβ): 4800 nM | Ki (RXRα [1]): 0.241 µM | EC50 (RXRγ): 280 nM | % efficacy, RXR Trans. Y (RXRγ): (13) % | Ki (RARγ): 15000 nM | Ki (RXRβ [2]): 501 nM

Cc1cc2c(cc1N(C)c1ccc(C(=O)O)cc1)C(C)(C)CC=C2C(C)C [Compound 52, 4-[Methyl-(5-isopropyl-3,8,8-trimethyl-7,8-dihydronaphthalen-2-yl)amino]benzoic acid]
Ki (RARβ): > 10000 nM | Ki (RXRα [1]): 1.7 µM | % efficacy, RXR Trans. Y (RXRγ): (855) % | Ki (RARγ): > 10000 nM | Emax (RXRα [3]): 75% | EC50 (RXRβ [4]): > 1000 nM | % efficacy, RXR Trans. β (RXRβ [4]): (25) % | Ki (RXRβ [2]): 2700 nM

CCN(c1ccc2c(c1)C(C(C)(C)C)=CCC2(C)C)c1ccc(C(=O)O)cn1 [Compound 173, 6-[(8-t-Butyl-5,5-dimethyl-5,6-dihydro-naphthalen-2-yl)-ethyl-amino]-nicotinic acid]
EC50 (RXRγ): 2 nM | % efficacy, RXR Trans. Y (RXRγ): (125) % | EC50 (RXRα [3]): 0.001 µM | Emax (RXRα [3]): 120% | EC50 (RXRβ [4]): 9 nM | % efficacy, RXR Trans. β (RXRβ [4]): (132) %

CCC1=CCC(C)(C)c2cc(N(CC)c3ccc(C(=O)O)cc3)c(C)cc21 [Compound 59, 4-[Ethyl(5-ethyl-3,8,8-trimethyl-7,8-dihydronaphthalen-2-yl)amino]benzoic acid]
Ki (RARβ): > 10000 nM | Ki (RXRα [1]): 0.282 µM | % efficacy, RXR Trans. Y (RXRγ): (100) % | Ki (RARγ): > 10000 nM | Emax (RXRα [3]): 100% | % efficacy, RXR Trans. β (RXRβ [4]): (100) %

CCCCCCOc1cc2c(cc1N(CC)c1ccc(C(=O)O)cc1)C(C)=CCC2(C)C [Compound 142, 4-[Ethyl-(3-n-hexyloxy-5,5,8-trimethyl-5,6-dihydronaphthalen-2-yl)amino]benzoic Acid]
Ki (RARβ): 1000 nM | Ki (RXRα [1]): 0.19 µM | Ki (RARγ): > 1000 nM | Ki (RXRβ [2]): 111 nM

CCCCCCOc1cc2c(cc1N(CCC)c1ccc(C(=O)O)cc1)C(C)=CCC2(C)C [Compound 145, 4-[(3-n-Hexyloxy-5,5,8-trimethyl-5,6-dihydronaphthalen-2-yl)-n-propylamino]benzoic acid]
Ki (RARβ): 771 nM | Ki (RXRα [1]): 0.229 µM | EC50 (RXRγ): > 1000 nM | % efficacy, RXR Trans. Y (RXRγ): (10) % | Ki (RARγ): 6000 nM | Ki (RXRβ [2]): 475 nM

CCC1=CCC(C)(C)c2cc(C)c(N(CC)c3ccc(C(=O)O)cc3)cc21 [Compound 24, 4-[Ethyl(8-ethyl-3,5,5-trimethyl-5,6-dihydronaphthalen-2-yl)amino]benzoic acid]
Ki (RARβ): 9100 nM | Ki (RXRα [1]): 0.029 µM | EC50 (RXRγ): 2 nM | % efficacy, RXR Trans. Y (RXRγ): (102) % | Ki (RARγ): 13000 nM | EC50 (RXRα [3]): 0.001 µM | Emax (RXRα [3]): 100% | EC50 (RXRβ [4]): 10 nM | % efficacy, RXR Trans. β (RXRβ [4]): (96) % | Ki (RXRβ [2]): 66 nM

CCC1=CCC(C)(C)c2cc(N(CC)c3ccc(C(=O)O)cc3)ccc21 [Compound 75, 4-[Ethyl-(5-ethyl-8,8-dimethyl-7,8-dihydro-naphthalen-2-yl)-amino]-benzoic acid]
Ki (RARβ): > 10000 nM | Ki (RXRα [1]): 0.442 µM | % efficacy, RXR Trans. Y (RXRγ): (95) % | Ki (RARγ): > 10000 nM | EC50 (RXRα [3]): 0.319 µM | Emax (RXRα [3]): 100% | % efficacy, RXR Trans. β (RXRβ [4]): (75) % | Ki (RXRβ [2]): 806 nM

CCN(c1ccc(C(=O)O)cc1)c1cc2c(cc1C)C(C(C)C)=CCC2(C)C [Compound 53, 4-[Ethyl-(5-isopropyl-3,8,8-trimethyl-7,8-dihydronaphthalen-2-yl)amino]benzoic acid]
Ki (RARβ): > 10000 nM | Ki (RXRα [1]): 1.2 µM | % efficacy, RXR Trans. Y (RXRγ): (75) % | Ki (RARγ): > 10000 nM | Emax (RXRα [3]): 65% | EC50 (RXRβ [4]): > 1000 nM | % efficacy, RXR Trans. β (RXRβ [4]): (20) % | Ki (RXRβ [2]): > 1000 nM

CCN(c1ccc(C(=O)O)cc1)c1cc2c(cc1OCc1ccccc1)C(C)(C)CC=C2C [Compound 144, 4-[(3-Benzyloxy-5,5,8-trimethyl-5,6-dihydronaphthalen-2-yl)ethylamino]benzoic acid]
Ki (RARβ): 2700 nM | Ki (RXRα [1]): 0.077 µM | Ki (RARγ): 8100 nM | Ki (RXRβ [2]): 224 nM

CCCCCCCOc1cc2c(cc1N(CC)c1ccc(C(=O)O)cc1)C(C)=CCC2(C)C [Compound 143, 4[Ethyl-(3-n-heptyloxy-5,5,8-trimethyl-5,6-dihydronaphthalen-2-yl)amino]benzoic acid]
Ki (RARβ): 1700 nM | Ki (RXRα [1]): 0.175 µM | Ki (RARγ): 8400 nM | Ki (RXRβ [2]): 449 nM

CCN(c1ccc(C(=O)O)cc1)c1cc2c(cc1C)C(C)(C)CC=C2C [Compound 23, 4-[Ethyl(3,5,5,8-tetramethyl-5,6-dihydronaphthalen-2-yl)amino]benzoic acid]
Ki (RARβ): 16000 nM | Ki (RXRα [1]): 0.008 µM | EC50 (RXRγ): 41 nM | % efficacy, RXR Trans. Y (RXRγ): (119) % | EC50 (RXRα [3]): 0.021 µM | Emax (RXRα [3]): 101% | EC50 (RXRβ [4]): 149 nM | % efficacy, RXR Trans. β (RXRβ [4]): (101) % | Ki (RXRβ [2]): 309 nM

CC1=CCC(C)(C)c2cc(N(CC3CC3)c3ccc(C(=O)O)cc3)c(C)cc21 [Compound 47, 4-[Cyclopropylmethyl(3,5,8,8-tetramethyl-7,8-dihydronaphthalen-2-yl)amino]benzoic acid]
Ki (RARβ): > 10000 nM | Ki (RXRα [1]): 2.5 µM | % efficacy, RXR Trans. Y (RXRγ): (70) % | Ki (RARγ): > 10000 nM | Emax (RXRα [3]): 65% | Ki (RXRβ [2]): > 1000 nM

CCCCCCCOc1cc2c(cc1N(CCC)c1ccc(C(=O)O)cc1)C(C)=CCC2(C)C [Compound 146, 4-[(3-n-Heptyloxy-5 5,8-trimethyl-5,6-dihydronaphthalen-2-yl)-n-propylamino]benzoic acid]
Ki (RARβ): 576 nM | Ki (RXRα [1]): 0.206 µM | Ki (RARγ): 2800 nM | Ki (RXRβ [2]): 429 nM
